Assay results published in patent publication US20240262803A1, “COMPOUNDS, COMPOSITIONS AND METHODS OF TREATING DISORDERS” (Chungdu Anticancer Bioscience Ltd, priority 2021, published 2024).
Entries after “also recorded” stand apart in the source; their conditions may differ. Like-named read-outs stand apart in the source and are kept apart here.

Key:
[1] = system: colon cancer cell line HCT116; experiment: MTT assay of cellular proliferation, HCT116; type: cell-based; conditions: Homo sapiens, HCT-116, read-out: EC50: Concentration that inhibits 50% of proliferation
Procedure, shortened: (§1)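 First, mid-log cells are seeded in DMEM containing 5% FBS and grown 15˜24 h to 20˜30% confluence. Next, compounds are added across 1 nM to 10 μM. Finally, MTT is given for 3˜4 h, formazan is dissolved and read at A570 to derive EC50.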

RPEMYC^H2B-GFP cells [2] = experiment: Mechanism-informed phenotypic screening assay (mitotic arrest, polyploidy; GE IN-Cell Analyzer 2000); type: cell-based; conditions: 20 nM to 20 μM, 24, 48 or 72 hours, read-out: Min. Effective conc. for polyploidy (≥5%)
Procedure, shortened: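 Cells expressing Histone 2B-EGFP (RPEMYC^H2B-GFP) were plated 18-24 h before exposure to compounds at 20 nM to 20 μM. At 24, 48 or 72 h, imaging scored mitotic arrest or change in DNA content. Value is the lowest concentration giving polyploid accumulation at 48 h.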

[3] = system: lung cancer cell line NCI-H23; experiment: MTT assay of cellular proliferation, NCI-H23; type: cell-based; conditions: Homo sapiens, read-out: EC50: Concentration that inhibits 50% of proliferation
Procedure, shortened: as §1

SW480 = experiment: Minimal effective concentration that elicits polyploidy, SW480; type: cell-based; conditions: Homo sapiens, read-out: MECP: Minimal effective concentration that elicits polyploidy
[4] = system: breast cancer cell line MDA-MB-231; experiment: MTT assay of cellular proliferation, MDA-MB-231; type: cell-based; conditions: Homo sapiens, read-out: EC50: Concentration that inhibits 50% of proliferation
Procedure, shortened: as §1

[5] = system: gastric cancer cell line NCI-N87; experiment: MTT assay of cellular proliferation, NCI-N87; type: cell-based; conditions: Homo sapiens, read-out: EC50: Concentration that inhibits 50% of proliferation
Procedure, shortened: as §1

[6] = system: lung cancer cell line A549; experiment: MTT assay of cellular proliferation, A549; type: cell-based; conditions: Homo sapiens, read-out: EC50: Concentration that inhibits 50% of proliferation
Procedure, shortened: as §1

[7] = system: colon cancer cell line SW460; experiment: MTT assay of cellular proliferation, SW460; type: cell-based; conditions: Homo sapiens, SW480; read-out: EC50: Concentration that inhibits 50% of proliferation
Procedure, shortened: as §1

[8] = system: human lung adenocarcinoma cell line NCI-H23; experiment: Xenograft assay, NCI-H23; type: in vivo; conditions: NCI-H23 subcutaneous xenograft, Nu/Nu mice, oral gavage twice a day for 9 days, FIG. 3
Experimental: (§2) Xenografts were initiated in immunocompromised (Nu/Nu) mice with the human lung adenocarcinoma cell line NCI-H23 (FIG. 3) and the human colon cancer cell line HCT116 (FIG. 4). Five million cells were injected subcutaneously into each mouse and treatment was initiated when the average tumor volumes reached 150 mm3 (n=5/groups). Tumor-bearing mice were randomized into different groups to receive either vehicle or indicated compounds. The compounds were administered through oral gavage twice a day for 9 days. Day 0 on the x-axis indicates the day that treatment was initiated. For these experiments, all compounds were first dissolved in DMSO and then diluted 1:10 into a mixture containing 50% PEG300 and 49% PBS, 1% Tween 80, pH2.2. 100 ul of drug solution was administered with each dose. Tumor volumes were determined once every three days and are calculated from digital caliper raw data by using the formula: Volume (mm3)=(L×W^2)/2. The value W (Width) is the smaller of two perpendicular tumor axes and the value L (Length) is the larger of two perpendicular axes. Mean tumor volume growth curves and means are calculated for each treatment group.

RPEMYC^H2B-GFP cells [9] = experiment: Mechanism-informed phenotypic screening assay (mitotic arrest, polyploidy; GE IN-Cell Analyzer 2000); type: cell-based; conditions: 20 nM to 20 μM, 24, 48 or 72 hours, read-out: Mitotic Arrest (≥5%)
[10] = system: colon cancer cell line HCT116; experiment: Minimal effective concentration that elicits polyploidy, HCT116; type: cell-based; conditions: Homo sapiens, HCT-116, read-out: MECP: Minimal effective concentration that elicits polyploidy
[11] = system: liver cancer cell line T2 HCC; experiment: Minimal effective concentration that elicits polyploidy, T2 HCC; type: cell-based; conditions: Mus musculus, read-out: MECP: Minimal effective concentration that elicits polyploidy
[12] = system: cervical cancer cell line Hela; experiment: MTT assay of cellular proliferation, Hela; type: cell-based; conditions: Homo sapiens, read-out: EC50: Concentration that inhibits 50% of proliferation
Procedure, shortened: as §1

[13] = system: liver cancer cell line T2 HCC; experiment: MTT assay of cellular proliferation, T2 HCC; type: cell-based; conditions: Mus musculus, read-out: EC50: Concentration that inhibits 50% of proliferation
Procedure, shortened: as §1

[14] = system: human colon cancer cell line HCT116; experiment: Xenograft assay, HCT116; type: in vivo; conditions: HCT116 subcutaneous xenograft, Nu/Nu mice, oral gavage twice a day for 9 days, FIG. 4
Experimental: as §2

[15] = system: breast cancer cell line MDA-MB-231; experiment: Minimal effective concentration that elicits polyploidy, MDA-MB-231; type: cell-based; conditions: Homo sapiens, read-out: MECP: Minimal effective concentration that elicits polyploidy
[16] = system: cervical cancer cell line Hela; experiment: Minimal effective concentration that elicits polyploidy, Hela; type: cell-based; conditions: Homo sapiens, read-out: MECP: Minimal effective concentration that elicits polyploidy
[17] = system: lung cancer cell line A549; experiment: Minimal effective concentration that elicits polyploidy, A549; type: cell-based; conditions: Homo sapiens, read-out: MECP: Minimal effective concentration that elicits polyploidy
[18] = system: lung cancer cell line NCI-H23; experiment: Minimal effective concentration that elicits polyploidy, NCI-H23; type: cell-based; conditions: Homo sapiens, read-out: MECP: Minimal effective concentration that elicits polyploidy
[19] = system: gastric cancer cell line NCI-N87; experiment: Minimal effective concentration that elicits polyploidy, NCI-N87; type: cell-based; conditions: Homo sapiens, read-out: MECP: Minimal effective concentration that elicits polyploidy

- EC50 [1]: 1 to 1000 nM
- EC50 [3]: 1 to 1000 nM
- EC50 [4]: 1 to 1000 nM
- EC50 [5]: 1 to 1000 nM
- EC50 [6]: 1 to 1000 nM
- EC50 [7]: 1 to 1000 nM
- EC50 [12]: 1 to 1000 nM
- EC50 [13]: 1 to 1000 nM
Compound: COc1cc(Oc2ncccc2-c2ccncc2)cc(C(F)(F)F)c1 [Compound 9, 2-(3-methoxy-5-(trifluoromethyl)phenoxy)-3,4′-bipyridine]
- minimal effective concentration (RPEMYC^H2B-GFP cells [2]): 1 µM
- minimal effective concentration (SW480): 0.001 to 1 µM
- tumor growth (tumor volume) [8]: suppress the growth; also recorded: suppressing the tumor growth; also recorded: eliciting tumor regression
- minimal effective concentration (RPEMYC^H2B-GFP cells [9]): 1 µM
- minimal effective concentration [10]: 0.001 to 1 µM
- minimal effective concentration [11]: 0.001 to 1 µM
- tumor growth (tumor volume) [14]: suppress the growth; also recorded: suppressing the tumor growth; also recorded: eliciting tumor regression
- minimal effective concentration [15]: 0.001 to 1 µM
- minimal effective concentration [16]: 0.001 to 1 µM
- minimal effective concentration [17]: 0.001 to 1 µM
- minimal effective concentration [18]: 0.001 to 1 µM
- minimal effective concentration [19]: 0.001 to 1 µM
